Series [1] deals with T1, human microsomal GST (MGST1) (Homo sapiens, UniProt P10620).
T1 sequence (P10620 1-155): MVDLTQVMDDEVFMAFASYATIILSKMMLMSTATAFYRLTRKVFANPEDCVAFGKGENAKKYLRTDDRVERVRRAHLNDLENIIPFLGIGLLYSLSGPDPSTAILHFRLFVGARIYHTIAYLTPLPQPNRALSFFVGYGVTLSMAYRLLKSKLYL
The series can be described thus: GST activity toward CDNB. Format: biochemical. Conditions: GSH co-substrate.

For the next series, the target named is EXP1 (Plasmodium falciparum, UniProt Q8IIF0). Nature of the series: inhibition of GSH-CDNB conjugation, Dixon plot. Format: biochemical.
Series [2] concerns C=CC1=C(C)C2=Cc3c(C=C)c(C)c4[n]3[Fe+][n]3c(c(C)c(CCC(=O)O)c3=CC3=NC(=C4)C(C)=C3CCC(=O)O)=CC1=N2. Nature of the series: purified protein. To be noted: 2 mM GSH, 100 nM enzyme, pH 6.5, 0.1% Triton X-100.

With `O=[N+]([O-])c1ccc(Cl)c([N+](=O)[O-])c1` [1-chloro-2,4-dinitrobenzene], the “GST activity toward CDNB” value in series [1] was “comparable to that of the human microsomal GST (MGST1, Figure S3D-F)”.
As for `C=CC1=C(C)C2=Cc3c(C=C)c(C)c4[n]3[Fe+][n]3c(c(C)c(CCC(=O)O)c3=CC3=NC(=C4)C(C)=C3CCC(=O)O)=CC1=N2` [hematin], at EXP1, affinity was put at a Ki of 0.17 µM.
Consider EXP1 (Plasmodium falciparum 3D7), for which, in series [2], the Km – broadly, the concentration of substrate that gives half-maximal velocity – is 0.251 µM; the turnover number (kcat) (as a rule, the number of substrate molecules converted per active site and unit of time at saturation) worked out at 7.7 s⁻¹.

The values above are taken from paper PMC4167585 (Cell, 2014).
